Test system: 633275-114-R-J1-PDC complex spheroids, viability
Assay: Anticancer human tumor 633275-114-R-J1-PDC patient-derived endometrial adenocarcinoma cell line growth inhibition [GQUAD]
Conditions: for IC50: curve of first compound; for viability, T/C: stronger effect = lower value
In short: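 Viability of tumor cells grown as complex spheroids with endothelial and stromal cells, exposed to drug combinations. Top concentration at or near clinical Cmax (else 10 microM), diluted in half-log increments.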

[1] = second compound 0.0316 µM, first compound 0.0316 µM
[2] = second compound 0.0316 µM, first compound 0.1 µM
[3] = second compound 0.0316 µM, first compound 0.316 µM
[4] = second compound 0.0316 µM, first compound 1 µM
[5] = second compound 0.0316 µM, first compound 3.16 µM
[6] = second compound 0.0316 µM, first compound 10 µM
[7] = second compound 0.1 µM, first compound 0.0316 µM
[8] = second compound 0.1 µM, first compound 0.1 µM
[9] = second compound 0.1 µM, first compound 0.316 µM
[10] = second compound 0.1 µM, first compound 1 µM
[11] = second compound 0.1 µM, first compound 3.16 µM
[12] = second compound 0.1 µM, first compound 10 µM
[13] = second compound 0.316 µM, first compound 0.0316 µM
[14] = second compound 0.316 µM, first compound 0.1 µM
[15] = second compound 0.316 µM, first compound 0.316 µM
[16] = second compound 0.316 µM, first compound 1 µM
[17] = second compound 0.316 µM, first compound 3.16 µM
[18] = second compound 0.316 µM, first compound 10 µM
[19] = second compound 1 µM, first compound 0.0316 µM
[20] = second compound 1 µM, first compound 0.1 µM
[21] = second compound 1 µM, first compound 0.316 µM
[22] = second compound 1 µM, first compound 1 µM
[23] = second compound 1 µM, first compound 3.16 µM
[24] = second compound 1 µM, first compound 10 µM
[25] = second compound 3.16 µM, first compound 0.0316 µM
[26] = second compound 3.16 µM, first compound 0.1 µM
[27] = second compound 3.16 µM, first compound 0.316 µM
[28] = second compound 3.16 µM, first compound 1 µM
[29] = second compound 3.16 µM, first compound 3.16 µM
[30] = second compound 3.16 µM, first compound 10 µM
[31] = second compound 10 µM, first compound 0.0316 µM
[32] = second compound 10 µM, first compound 0.1 µM
[33] = second compound 10 µM, first compound 0.316 µM
[34] = second compound 10 µM, first compound 1 µM
[35] = second compound 10 µM, first compound 3.16 µM
[36] = second compound 10 µM, first compound 10 µM
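Also: spheroids exposed to the agents for seven days.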
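For viability, T/C in this document: percent of DMSO vehicle control viability which is 100%.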

In the case of `O=C(c1cc(Cc2n[nH]c(=O)c3ccccc23)ccc1F)N1CCN(C(=O)C2CC2)CC1` + Cc1[nH]c2ccc(F)cc2c1-c1nc2c3cccnc3c3ncccc3c2[nH]1, the IC50 (second compound 0.0316 µM) is reported as over 10000 nM, the IC50 (second compound 0.1 µM) is reported as over 10000 nM and the IC50 (second compound 0.316 µM) is reported as over 10000 nM. It also gave an IC50 (second compound 1 µM) of over 10000 nM, an IC50 (second compound 3.16 µM) of 8310 nM and an IC50 (second compound 10 µM) of over 10000 nM. The viability, T/C [1] was 90%, the viability, T/C [2] was 88.3% and the viability, T/C [3] was 88%. For the same molecule, the viability, T/C [4] was 84.7%, the viability, T/C [5] was 80.5% and the viability, T/C [6] was 64.5%. For the same molecule, the viability, T/C [7] was 98%, the viability, T/C [8] was 89.9% and the viability, T/C [9] was 94%. It also gave a viability, T/C [10] of 79.5%, a viability, T/C [11] of 80% and a viability, T/C [12] of 56.9%. It also gave a viability, T/C [13] of 92.1%, a viability, T/C [14] of 93% and a viability, T/C [15] of 88.8%. For the same molecule, the viability, T/C [16] was 83.1%, the viability, T/C [17] was 76% and the viability, T/C [18] was 55.4%. It also gave a viability, T/C [19] of 90.6%, a viability, T/C [20] of 89.7% and a viability, T/C [21] of 88.4%. It also gave a viability, T/C [22] of 77.1%, a viability, T/C [23] of 74.1% and a viability, T/C [24] of 56.7%. For the same molecule, the viability, T/C [25] was 69.8%, the viability, T/C [26] was 67.4% and the viability, T/C [27] was 68.4%. For the same molecule, the viability, T/C [28] was 63.5%, the viability, T/C [29] was 59.5% and the viability, T/C [30] was 48.2%. The viability, T/C [31] was 68.9%, the viability, T/C [32] was 66.5% and the viability, T/C [33] was 70.2%. It also gave a viability, T/C [34] of 62.1%, a viability, T/C [35] of 61.1% and a viability, T/C [36] of 49.4%.
`C=CCn1c(=O)c2cnc(Nc3ccc(N4CCN(C)CC4)cc3)nc2n1-c1cccc(C(C)(C)O)n1` + CN(C)c1ccc(Nc2c3ccc(NC(=O)CCN4CCCC4)cc3nc3cc(NC(=O)CCN4CCCC4)ccc23)cc1 gave an IC50 (second compound 0.0316 µM) of 582 nM, an IC50 (second compound 0.1 µM) of 692 nM and an IC50 (second compound 0.316 µM) of 586 nM. It also gave an IC50 (second compound 1 µM) of 641 nM, an IC50 (second compound 3.16 µM) of 390 nM and an IC50 (second compound 10 µM) of under 31.6 nM. For the same molecule, the viability, T/C [1] was 103%, the viability, T/C [2] was 84.3% and the viability, T/C [3] was 69.8%. The viability, T/C [4] was 33.9%, the viability, T/C [5] was 19.5% and the viability, T/C [6] was 14.8%. The viability, T/C [7] was 106%, the viability, T/C [8] was 92.5% and the viability, T/C [9] was 82.1%. For the same molecule, the viability, T/C [10] was 34.2%, the viability, T/C [11] was 20.8% and the viability, T/C [12] was 14.1%. It also gave a viability, T/C [13] of 105%, a viability, T/C [14] of 97% and a viability, T/C [15] of 63.8%. The viability, T/C [16] was 37.6%, the viability, T/C [17] was 20.6% and the viability, T/C [18] was 15.6%. The viability, T/C [19] was 93.4%, the viability, T/C [20] was 85% and the viability, T/C [21] was 71%. The viability, T/C [22] was 36.9%, the viability, T/C [23] was 19.8% and the viability, T/C [24] was 15.7%. It also gave a viability, T/C [25] of 87.2%, a viability, T/C [26] of 66.8% and a viability, T/C [27] of 55.8%. For the same molecule, the viability, T/C [28] was 34.8%, the viability, T/C [29] was 29.4% and the viability, T/C [30] was 16.6%. For the same molecule, the viability, T/C [31] was 32.2%, the viability, T/C [32] was 23.9% and the viability, T/C [33] was 22.2%. For the same molecule, the viability, T/C [34] was 16.9%, the viability, T/C [35] was 14.9% and the viability, T/C [36] was 7.51%.
`CC(C)(O)C1CCC(Nc2ccc3ncc(-c4cccc(C(F)(F)F)c4)n3n2)CC1` (stereo unspecified) + Cc1[nH]c2ccc(F)cc2c1-c1nc2c3cccnc3c3ncccc3c2[nH]1 gave an IC50 (second compound 0.0316 µM) of 1970 nM, an IC50 (second compound 0.1 µM) of 2010 nM and an IC50 (second compound 0.316 µM) of 1780 nM. For the same molecule, the IC50 (second compound 1 µM) was 1910 nM, the IC50 (second compound 3.16 µM) was 947 nM and the IC50 (second compound 10 µM) was 1070 nM. For the same molecule, the viability, T/C [1] was 108%, the viability, T/C [2] was 103% and the viability, T/C [3] was 112%. For the same molecule, the viability, T/C [4] was 75.2%, the viability, T/C [5] was 32.2% and the viability, T/C [6] was 32.6%. For the same molecule, the viability, T/C [7] was 98.7%, the viability, T/C [8] was 103% and the viability, T/C [9] was 101%. For the same molecule, the viability, T/C [10] was 79.7%, the viability, T/C [11] was 28.9% and the viability, T/C [12] was 32.5%. The viability, T/C [13] was 95.5%, the viability, T/C [14] was 99.1% and the viability, T/C [15] was 90.5%. The viability, T/C [16] was 70.2%, the viability, T/C [17] was 27.5% and the viability, T/C [18] was 32.6%. It also gave a viability, T/C [19] of 89.6%, a viability, T/C [20] of 95.6% and a viability, T/C [21] of 86.8%. It also gave a viability, T/C [22] of 74.2%, a viability, T/C [23] of 31% and a viability, T/C [24] of 27%. It also gave a viability, T/C [25] of 72.6%, a viability, T/C [26] of 75.5% and a viability, T/C [27] of 69.9%. It also gave a viability, T/C [28] of 49.3%, a viability, T/C [29] of 27.4% and a viability, T/C [30] of 26.1%. For the same molecule, the viability, T/C [31] was 65.2%, the viability, T/C [32] was 69.8% and the viability, T/C [33] was 62.6%. The viability, T/C [34] was 52.1%, the viability, T/C [35] was 24.1% and the viability, T/C [36] was 21.5%.

Source: PubChem BioAssay AID2060505 (Molecular Pharmacology Branch, DTP, NCI, 2025)
